According to patent US6476019B1, “Spirocyclic ligands for sigma receptors, and libraries and methods of use thereof” (Sepracor Inc., priority 1999, dated 2002):
Read-outs that look alike come from different tables or passages of the source.

Legend:
[1] = target: T1, sigma-1 receptor (guinea pig brain) (Cavia porcellus, UniProt Q60492); assay: Antagonism of haloperidol binding to guinea pig sigma-1 receptors; details: sigma-1, guinea pig brain; for % Inhibition: test concentration not given
T1 construct: from tissue; host or cells: guinea pig brain

[2] = target: human sigma receptor (Homo sapiens, UniProt Q99720); assay: Human sigma receptor assay; assay type: binding
Description: (§1) The ability of test compounds to displace sigma ligands in vitro was determined by the methods of de Costa et al. (FEBS Lett. 251:53 (1989)) and De Haven-Hudkine et al. (Eur. J. Pharmacol. 227:372 (1992)) having guinea pig as a receptor source. Whereas, the methods of Gamapatju et al. (J. Pharm.&Exp. 289:251 (1999)) were utilized for human sigma receptors.

[3] = target: T2, guinea pig sigma receptor (Cavia porcellus, UniProt Q60492); assay: Guinea pig sigma receptor assay; assay type: binding
T2 construct: having guinea pig as a receptor source; from tissue; host or cells: guinea pig
Description: as §1

[4] = test system: Male Wistar rats; assay: MK-801-Induced Psychosis Model; assay type: in vivo, rat; details: rat, 0.25 mg/kg i.p.; MK-801 0.3 mg/kg i.p.
From the text: The non-competitive NMDA receptor antagonist MK-801 induces stereotypies and hyperactivity in rodents (1) by interacting with the NMDA receptor-associated ion channel. Phencyclidine, which also interferes with the NMDA receptor, produces psychotic effects in humans similar in many respects to schizophrenia. […] Therefore the MK-801-induced activity and stereotypies in rats may represent an appropriate animal model to test the potential efficacy of antipsychotic drugs.
Male Wistar rats (Iffa Crédo, St Germain/l'Arbresle, France), weight 250-300 g were housed 2 per cage on a 12 h/12 h light dark cycle (lights on at 7.00 a.m.) at a room temperature of 21±2° C. for a minimum of 5 days before testing. All animals had access to commercial food and tap water ad libitum.
On the day of the experiment, rats were treated with either reference drug vehicle, the reference drugs haloperidol or clozapine the test compound vehicle or test compounds. After administration, the rats were returned to their home cages for 15 minutes. […] The remaining rats treated with placebo received a second injection of vehicle. The standard injection volume was 2.0 ml/kg. After 10 minutes in the home cages, rats were transferred to the test box (Plexiglas, 29×12×12 cm), 5 minutes before the assessment for accomodation. The test box was cleaned with 70% ethanol before each assessment. Stereotypies, defined as wall-contacts with the snout, and locomotion, defined as turn-rounds of 180°, were assessed during 5 minute periods.

[5] = read-out: IC50 Against Human Sigma Receptor
[6] = read-out: IC50 Against Guinea Pig Sigma Receptor

T1 sequence (Q60492 whole entry): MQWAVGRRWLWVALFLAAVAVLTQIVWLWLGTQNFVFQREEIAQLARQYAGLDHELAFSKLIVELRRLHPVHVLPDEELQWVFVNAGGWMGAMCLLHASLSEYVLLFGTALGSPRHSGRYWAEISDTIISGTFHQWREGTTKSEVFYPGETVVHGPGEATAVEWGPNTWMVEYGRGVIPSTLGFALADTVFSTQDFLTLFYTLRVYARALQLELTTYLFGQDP
T2 sequence (Q60492 whole entry): as above
Chain of human sigma receptor (Q99720 whole entry): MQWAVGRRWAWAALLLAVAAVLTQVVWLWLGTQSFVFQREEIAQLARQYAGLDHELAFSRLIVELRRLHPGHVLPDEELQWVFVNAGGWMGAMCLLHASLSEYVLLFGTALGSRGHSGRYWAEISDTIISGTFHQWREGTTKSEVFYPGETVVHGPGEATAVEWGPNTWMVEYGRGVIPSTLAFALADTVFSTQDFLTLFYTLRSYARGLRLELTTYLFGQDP

Molecule	IC50 [1] [nM]	% Inhibition [1] [%]	also measured
1′-(iso-nicotinyl)-3,4-dihydrospiro[5H-1-benzazepine-2(1H)-4′-piperidin]-5-one [Compound 20]	> 1000	<50	–
NC1CCC2(CCN(Cc3ccc(F)cc3)CC2)Nc2ccccc21 (racemic) [Compound 36, 1′-(4-fluorobenzyl)-3,4-dihydrospiro[5H-1-benzazepine-2(1H)-4′-piperidin]-5-amine]	–	–	IC50 [2, 5]: < 100 nM
CC(=O)NC1CCC2(CCN(Cc3ccc(F)cc3)CC2)Nc2ccccc21 (racemic) [Compound 39]	–	–	IC50 [2, 5]: < 1000 nM; IC50 [3, 6]: < 10 nM
CC(=O)N1CCC2(CCC(=O)c3ccccc3N2)CC1 [Compound 10, 1′-Acetyl-3,4-dihydrospiro[5H-1-benzazepine-2(1H), 4′-piperidin]-5-one]	–	>50	–
O=C1CCC2(CCN(C(=O)c3ccc(Cl)c(Cl)c3)CC2)Nc2ccccc21 [Compound 12, 1′-(3,4-Dichlorobenzoyl)-3,4-dihydrospiro[5H-1-benzazepine-2(1H)-4′-piperidin]-5-one]	> 1000	<50	–
O=C1CCC2(CCN(C(=O)N3CCOCC3)CC2)Nc2ccccc21 [Compound 13, 1′-(4-morpholinecarbonyl)-3,4-dihydrospiro[5H-1-benzazepine-2(1H)-4′-piperidin]-5-one]	> 1000	<50	–
CC(C)(C)c1ccc(C(=O)N2CCC3(CCC(=O)c4ccccc4N3)CC2)cc1 [Compound 14, 1′-(4-tert-Butylbenzoyl)-3,4-dihydrospiro[5H-1-benzazepine-2(1H)-4′-piperidin]-5-one]	> 1000	<50	–
CCN(CC)C(=O)N1CCC2(CCC(=O)c3ccccc3N2)CC1 [Compound 15, 1′-(Diethylcarbamyl)-3,4-dihydrospiro[5H-1-benzazepine-2(1H)-4′-piperidin]-5-one]	> 1000	<50	–
O=C1CCC2(CCN(C(=O)c3ccc4ccccc4c3)CC2)Nc2ccccc21 [Compound 16, 1′-(2-Naphthoyl)-3,4-dihydrospiro[5H-1-benzazepine-2(1H)-4′-piperidin]-5-one]	> 1000	<50	–
O=C1CCC2(CCN(S(=O)(=O)c3ccccc3)CC2)Nc2ccccc21 [Compound 17, 1′-(Benzenesulfonyl)-3,4-dihydrospiro[5H-1-benzazepine-2(1H)-4′-piperidin]-5-one]	> 1000	<50	–
O=C1CCC2(CCN(Cc3ccc(OC(F)(F)F)cc3)CC2)Nc2ccccc21 [Compound 18, 1′-(4-Trifluoromethoxybenzyl)-3,4-dihydrospiro[5H-1-benzazepine-2(1H), 4′-piperidin]-5-one]	–	>50	–
COC(=O)c1ccc(CN2CCC3(CCC(=O)c4ccccc4N3)CC2)cc1 [Compound 22, 1′-(Methyl-(4-methylbenzoate))-3,4-dihydrospiro[5H-1-benzazepine-2(1H), 4′-piperidin]-5-one]	< 1000	>50	–
C=C(C)CCN1CCC2(CCC(=O)c3ccccc3N2)CC1 [Compound 23, 1′-(3-methyl-3-butene)-3,4-dihydrospiro[5H-1-benzazepine-2(1H)-4′-piperidin]-5-one]	–	>50	–
N#Cc1ccc(CN2CCC3(CCC(=O)c4ccccc4N3)CC2)cc1 [Compound 24, 1′-(4-cyanobenzyl)-3,4-dihydrospiro[5H-1-benzazepine-2(1H), 4′-piperidin]-5-one]	–	>50	–
O=C1CCC2(CCN(CCC3CCCCC3)CC2)Nc2ccccc21 [Compound 25]	–	>50	–
C=CCN1CCC2(CCC(=O)c3ccccc3N2)CC1 [Compound 26, 1′-(allyl)-3,4-dihydrospiro[5H-1-benzazepine-2(1H)-4′-piperidin]-5-one]	–	>50	–
CC(C)(C)CCN1CCC2(CCC(=O)c3ccccc3N2)CC1 [Compound 27, 1′-(3,3-dimethylbutane)-3,4-dihydrospiro[5H-1-benzazepine-2(1H)-4′-piperidin]-5-one]	–	>50	–
O=C1CCC2(CCN(CC3CO3)CC2)Nc2ccccc21 (stereo not shown) [Compound 28, 1′-(epoxymethyl)-3,4-dihydrospiro[5H-1-benzazepine-2(1H)-4′-piperidin]-5-one]	–	>50	–
CC(C)CCN1CCC2(CCC(=O)c3ccccc3N2)CC1 [Compound 29, 1′-(3-methylbutane)-3,4-dihydrospiro[5H-1-benzazepine-2(1H)-4′-piperidin]-5-one]	< 100	>50	–
O=C1CCC2(CCN(Cc3ncc[nH]3)CC2)Nc2ccccc21 [Compound 30, 1′-(2-methyl-imidazole)-3,4-dihydrospiro[5H-1-benzazepine-2(1H)-4′-piperidin]-5-one]	< 1000	>50	–
O=C1C=CC2(CCN(Cc3ccc(F)cc3)CC2)Nc2ccccc21 [Compound 34, 1′-(4-Fluorobenzyl)-spiro[5-1-benzazepine-2(1H)-4′-piperidin]-5-one]	< 100	>50	IC50 [3, 6]: < 100 nM
Fc1ccc(CN2CCC3(CCCc4ccccc4N3)CC2)cc1 [Compound 43]	–	–	IC50 [2, 5]: < 1000 nM
O=C1CCC2(CCN(CC(O)c3ccccc3)CC2)Nc2ccccc21 (stereo not shown) [Compound 45, 1′-(2-hydroxy-phenethyl)-3,4-dihydrospiro[5H-1-benzazepine-2(1H)-4′-piperidin]-5-one]	–	–	IC50 [2, 5]: < 100 nM; IC50 [3, 6]: < 10 nM
CC(c1ccc(F)cc1)N1CCC2(CCC(=O)c3ccccc3N2)CC1 (stereo not shown) [Compound 46, 1′-(1-Methyl-4-fluorobenzyl)-3,4-dihydrospiro[5H-1-benzazepine-2(1H)-4′-piperidin]-5-one]	–	–	IC50 [2, 5]: < 100 nM; IC50 [3, 6]: < 10 nM
C=C1c2ccccc2NC12CCN(Cc1ccc(F)cc1)CC2 [Compound 53, 1-Fluorobenzyl-spiro[(3-methylene)-indole-2,4′-piperidine]]	–	–	IC50 [2]: > 1000 nM; IC50 [3]: < 100 nM
O=C(CCCN1CCC(O)(c2ccc(Cl)cc2)CC1)c1ccc(F)cc1 [haloperidol, reference compound]	–	–	MK-801-induced locomotion [4]: significant reduction; MK-801-induced stereotypies [4]: significant reduction
